Measurements published in paper PMC5908160, “Inhibition of sperm motility in male macaques with EP055, a potential non-hormonal male contraceptive” (PLoS ONE, 2018).

System: rhesus macaque (Macaca mulatta) sperm
Assay: Sperm motility in rhesus males after i.v. infusion of EP055
Format: in vivo
Source text: Semen was collected by direct penile stimulation with a P-T Electronics Model 303 PTE 110 Volt AC stimulator equipped with electrocardiogram pad electrodes (10–35 V, 20 ms duration, 18 pulses/sec) as previously described. Semen was collected weekly for 3 weeks to establish baseline parameters for each male. Samples were inspected visually to determine sperm motility and suitability for the study. Sperm motility data from male 28106 presented in S1 Table is representative of pre-treatment samples. Immediately after collection, the seminal plug was separated from the liquefied fraction, placed into a cryovial, flash frozen in liquid nitrogen, and stored at -80C until evaluation for drug levels. Spermatozoa were prepared by centrifugation (7 min, 200 g) of the liquid portion of the ejaculate and resuspending the sperm pellet in TALP-HEPES medium containing 0.3% bovine serum albumin at 37°C. An aliquot was taken to determine concentration using a hemocytometer, percent motility and forward progression as previously described. Baseline semen samples were collected from each male twice during the week prior to treatment. Semen was collected from each male 6–8 hr, 28–30 hr, and 78 hr post-infusion of low dose EP055 (75–80 mg/kg body weight) intravenously. After a one-week recovery period, a baseline semen sample was obtained, and the following week semen samples were collected as described above after an intravenous infusion of high dose EP055 (125–130 mg/kg).
Sperm were diluted in TALP-HEPES medium containing 0.3% bovine serum albumin to achieve 50-100 sperm per field. Videos were taken using an iPhone 6s Plus positioned 12 inches from a Dell model E170Sc 17-inch LCD monitor (1280 x 1024 pixels at 60 Hz, 0.264 mm) attached to an Olympus CK40 inverted microscope using 20x magnification (10x objective). The video camera collected images at a resolution of 1080 x 1920 pixels at 30 frames per second and 401 ppi with a typical contrast ratio of 1300:1 for at least 8 seconds. The pixel size was 1.2 microns and the videos in .mp4 or .mov format. Videos were converted to .avi format using Any Video Converter (version 6.06, http://www.anvsoft.com/any-video-converter-free, Ultimate Media Solutions, AnvSoft Inc). These files were uncompressed using VirtualDub (version 1.10.2, http://www.virtualdub.org/).
Images were analyzed using the MTrackJ plug in (version 1.5.1, https://imagescience.org/meijering/software/mtrackj/) for ImageJ (1.51K, https://fiji.sc/). Briefly, files were imported as uncompressed .avi files, converted to greyscale and saved as .TIFF files. Each image was calibrated by measuring a representative sperm head (acrosomal apex to midpiece) using the Straight Edge Tool, using 5.18 microns as the standard length of a Macaca mulatta sperm head. Approximately 50 sperm per video were manually tracked for the entire length of the track and the mean curvilinear velocity of each track calculated using the MEASURE function. Tracks used in the final analysis were a minimum of 0.4 seconds.
Prior to infusion of EP055, each male was sedated with ketamine by the surgical staff at ONPRC and transported to the operating room. After positioning in dorsal recumbency, the male was intubated and placed under inhalant (isoflurane) anesthesia. Bilateral intravenous catheters were placed in cephalic veins, one for infusion and one for back-up. A percutaneous arterial line was placed in the right femoral artery for direct blood pressure measurement. Invasive blood pressure, heart rate, SpO2, and respirations were monitored by the surgical staff throughout the procedure. Initially, the low doses of EP055 in 5% DMSO-PBS 7.6 was infused by i.v. at 75-80 mg/kg, using a Medfusion 3500 pump (Smiths Medical, St. Paul, MN), and was started at a low flow rate (0.6mg/kg/min). In 3 of 4 males, a 5-10% increase in blood pressure and heart rate were noted within the first 2-3 minutes of infusion of EP055. […]

[1] = male 28106, high dose 125–130 mg/kg, 6 hrs post-iv
[2] = male 28106, high dose 125–130 mg/kg, 30 hrs post-iv
[3] = male 28106, high dose 125–130 mg/kg, 78 hrs post-iv
[4] = male 28106, high dose 125–130 mg/kg, 318 hrs post-iv
[5] = male 28106, high dose 125–130 mg/kg, 390 hrs post-iv
[6] = male 28106, high dose 125–130 mg/kg, 558 hrs post-iv
[7] = male 28106, high dose 125–130 mg/kg, 894 hrs post-iv
[8] = male 28106, low dose 75–80 mg/kg, 6 hrs post-iv
[9] = male 28106, low dose 75–80 mg/kg, 30 hrs post-iv
[10] = male 28106, low dose 75–80 mg/kg, 78 hrs post-iv
[11] = male 28106, low dose 75–80 mg/kg, 342 hrs post-iv
[12] = male 28187, high dose 125–130 mg/kg, 8 hrs post-iv
[13] = male 28187, high dose 125–130 mg/kg, 30 hrs post-iv
[14] = male 28187, high dose 125–130 mg/kg, 78 hrs post-iv
[15] = male 28187, high dose 125–130 mg/kg, 414 hrs post-iv
[16] = male 28187, low dose 75–80 mg/kg, 6 hrs post-iv
[17] = male 28187, low dose 75–80 mg/kg, 30 hrs post-iv
[18] = male 28187, low dose 75–80 mg/kg, 78 hrs post-iv
[19] = male 28187, low dose 75–80 mg/kg, 582 hrs post-iv
[20] = male 28187, low dose 75–80 mg/kg, 678 hrs post-iv

## COC(=O)NNc1nc(Nc2ccc(NC(C)=O)c(O)c2)nc(SCC(=O)O)n1 [EP055]
[1]
  F2: 25%
  Static: 20%
  VCL ± SEM: 72.8 ± 4.8 um/sec
[2]
  Clumps: Yes
  F1: 20%
  F2: 5%
  Static: 75%
  VCL ± SEM: 67.5 ± 7.9 um/sec
[3]
  Clumps: Yes
  F1: 15%
  F2: 20%
  F3+F4: 10%
  Static: 55%
  VCL ± SEM: 80.3 ± 6.9 um/sec
[4]
  Clumps: Yes
  F1: 30%
  F2: 20%
  F3+F4: 25%
  Static: 25%
[5]
  Clumps: Yes
  F1: 15%
  F2: 10%
  F3+F4: 50%
  Static: 25%
[6]
  Clumps: Yes
  F1: 15%
  F2: 40%
  F3+F4: 15%
  Static: 30%
[7]
  F1: 2%
  F3+F4: 78%
  Static: 20%
  VCL ± SEM: 101.7 ± 4.1 um/sec
[8]
  Clumps: Yes
  F1: 20%
  F3+F4: 50%
  Static: 30%
  VCL ± SEM: 135.8 ± 6.8 um/sec
[9]
  Clumps: Yes
  F1: 25%
  F2: 45%
  F3+F4: 5%
  Static: 25%
  VCL ± SEM: 105.1 ± 7.0 um/sec
[10]
  Clumps: Yes
  F1: 30%
  F2: 40%
  Static: 30%
  VCL ± SEM: 89.7 ± 6.3 um/sec
[11]
  F1: 5%
  F3+F4: 80%
  Static: 15%
  VCL ± SEM: 105.0 ± 5.8 um/sec
[12]
  Clumps: Yes
  F1: 10%
  F2: 50%
  F3+F4: 30%
  Static: 10%
  VCL ± SEM: 52.9 ± 3.0 um/sec
[13]
  Clumps: Yes
  F1: 10%
  F2: 80%
  Static: 10%
  VCL ± SEM: 40.5 ± 2.7 um/sec
[14]
  Clumps: Fewer
  F1: 95%
  Static: 5%
  VCL ± SEM: 25.4 ± 2.6 um/sec
[15]
  Clumps: Few
  F1: 10%
  F3+F4: 85%
  Static: 5%
  VCL ± SEM: 87.3 ± 6.2 um/sec
[16]
  Clumps: Few
  F1: 35%
  F3+F4: 65%
[17]
  Clumps: Yes
  F3+F4: 10%
  Static: 90%
[18]
  Clumps: Yes
  F1: 95%
  F3+F4: 5%
[19]
  F1: 95%
  F3+F4: 5%
[20]
  F3+F4: 80%
  Static: 20%
  VCL ± SEM: 109.4 ± 13.8 um/sec
post-infusion
  sperm clumping: severe sperm clumping
rhesus
  potential contraceptive window following administration: 24 to 48 h
  time necessary for sperm velocity to recover completely: more than 3 weeks
